Results as given in US7241753B2, “Method of treatment of prostate cancer” (priority 2000, dated 2007).
Like-named read-outs stand apart in the source and are kept apart here.

How the values were obtained:
[1] = system: Dunning AT-1 hormone-refractory prostate cancer tumor
Description: (§1) The Dunning prostate cancer cell-line, AT-1, is a completely hormone-refractory tumor. It lacks measurable quantities of receptors for androgens as well as estrogens. As a result, the clinical behavior of this tumor is not influenced by the presence or absence of sex steroids. The doubling time of the tumor is 2.5 days, which makes it one of the most […] of all hormone-refractory Dunning tumors. It has a low (less than 5%) tendency for metastasis. The Dunning tumors are suitable for evaluating immunologic experiments with prostate cancer as they grow in immunocompetent animals.
(§2) Biopsies from excised tumors where investigated microscopically using the TUNEL-technique. Tumor biopsies were investigated with immuno-cytochemistry and antibodies for macrophages and T-lymphocytes.
In the second experiment, rats were treated as in experiment 1, but tumor size was not allowed to exceed 10 mm in diameter. This experiment was made to further evaluate the influence of tumor size on the outcome of treatment.
Animals were divided in four groups:
(§3) Group 4 animals served as tumor-bearing controls.
After animals had been sacrificed, freshly frozen tumor samples were examined for apoptosis using the TUNEL technique.

breast cancer cell lines = details: in vitro; cited from earlier work
myeloid cell line = details: in vitro; cited from earlier work
[2] = system: Dunning AT-1 hormone-refractory prostate cancer tumor; assay: Experiment 1: Dunning AT-1 tumor transplanted subcutaneously in rats, tumors about 17 mm at start of treatment; assay type: in vivo, Copenhagen-Fisher male rat
Description: as §1, §2
In this experiment Dunning AT-1 tumor was passed through two Copenhagen-Fisher male rats and then transplanted in a single piece, approximately 10 mm^3, which was placed subcutaneously on a third Copenhagen-Fisher male rat's dorsal side. Tumors were allowed to grow to approximately 17 mm in diameter before treatment started. Four groups of six rats each were used.
Freund's complete adjuvant is used to potentiate immune reactivity and to trigger a T-cell response.
Group 3 animals received only complete Freund's adjuvant, 0.1 mL intra-tumorally.
as §3
Tumors were measured by slide caliper at the onset of experiment. This was repeated at the end of experiment when animals were sacrificed, tumors excised, and tumor weight was noted.

[3] = versus control, end of experiment 1

Row | SMILES | time for which tumor growth was arrested following treatment ([1]; single injection of 10 mg αAED) | apoptotic effect (breast cancer cell lines) | apoptotic effect (myeloid cell line) | mean tumor weight ([1]; single injection of 80 mg βAED, control 5.8 g) [g] | tumor growth observed macroscopically ([1]; single injection, αAED animals sacrificed after 96 hours) | mean tumor weight ([2]; end of experiment 1) [g] | median tumor weight ([2]; end of experiment 1) [g] | Tumor Diameter (mm) ([2]; end of experiment 1 (sacrifice after 3 weeks)) | Decrease in Tumor Size (mm) [2, 3] [mm] | Percent Reduction [2, 3] [%]
1 | C[C@]12CC[C@H]3[C@@H](CC=C4C[C@@H](O)CC[C@@]43C)[C@@H]1CC[C@H]2O [αAED, Δ5-androstene-3-β, 17α-diol] | at least 96 hours | apoptotic effect | apoptotic effect |  |  |  |  |  |  | 
2 | C[C@]12CC[C@H]3[C@@H](CC=C4C[C@@H](O)CC[C@@]43C)[C@@H]1CC[C@@H]2O [βAED, Δ5-androstene-3-β, 17β-diol] |  |  |  | 2.9 | clear retardation of tumor growth | 11.6 | 10 | 11.6 | 7.6 | 39.58
